target: T1, human TLR8 (Homo sapiens, UniProt Q9NR97); assay: HEK293-Blue-hTLR-8 cells assay; assay type: cell-based; conditions: HEK293-Blue-hTLR8 cells, SEAP reporter, R848 stimulation, 20 hrs
T1 sequence (Q9NR97 27-1041): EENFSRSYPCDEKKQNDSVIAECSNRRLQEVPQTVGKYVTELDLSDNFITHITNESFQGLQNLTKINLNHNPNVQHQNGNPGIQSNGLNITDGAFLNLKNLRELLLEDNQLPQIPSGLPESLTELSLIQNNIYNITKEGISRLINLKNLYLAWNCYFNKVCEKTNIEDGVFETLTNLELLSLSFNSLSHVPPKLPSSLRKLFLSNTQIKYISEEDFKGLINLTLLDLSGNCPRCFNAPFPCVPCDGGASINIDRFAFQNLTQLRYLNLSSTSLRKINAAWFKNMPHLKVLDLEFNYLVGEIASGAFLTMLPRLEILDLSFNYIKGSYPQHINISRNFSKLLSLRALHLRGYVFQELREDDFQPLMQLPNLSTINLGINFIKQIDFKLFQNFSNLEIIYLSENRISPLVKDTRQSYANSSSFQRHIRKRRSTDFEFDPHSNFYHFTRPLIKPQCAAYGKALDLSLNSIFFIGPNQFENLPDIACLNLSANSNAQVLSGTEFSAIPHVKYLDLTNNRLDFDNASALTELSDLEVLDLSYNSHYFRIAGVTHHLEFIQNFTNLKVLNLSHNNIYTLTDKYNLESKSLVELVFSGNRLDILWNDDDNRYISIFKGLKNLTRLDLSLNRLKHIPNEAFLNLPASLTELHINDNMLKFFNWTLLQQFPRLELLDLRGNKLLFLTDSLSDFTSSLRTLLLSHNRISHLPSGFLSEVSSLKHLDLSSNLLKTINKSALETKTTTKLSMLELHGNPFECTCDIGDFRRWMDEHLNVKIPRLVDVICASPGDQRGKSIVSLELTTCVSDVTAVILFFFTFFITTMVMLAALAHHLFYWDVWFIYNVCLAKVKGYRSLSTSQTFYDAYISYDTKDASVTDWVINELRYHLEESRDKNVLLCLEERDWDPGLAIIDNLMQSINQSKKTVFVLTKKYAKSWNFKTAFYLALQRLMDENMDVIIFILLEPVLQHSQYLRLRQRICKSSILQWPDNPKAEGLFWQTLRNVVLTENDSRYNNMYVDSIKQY
Description: HEK293-Blue-hTLR-8 Cells Assay:
A stable HEK293-Blue-hTLR-8 cell line was purchased from InvivoGen (Cat. #: hkb-htlr8, San Diego, Calif., USA). These cells were originally designed for studying the stimulation of human TLR8 by monitoring the activation of NF-κB. A SEAP (secreted embryonic alkaline phosphatase) reporter gene was placed under the control of the IFN-β minimal promoter fused to five NF-κB and AP-1-binding sites. The SEAP was induced by activating NF-κB and AP-1 via stimulating HEK-Blue hTLR8 cells with TLR8 ligands. Therefore the reporter expression was declined by TLR8 antagonist under the stimulation of a ligand, such as R848, for incubation of 20 hrs. The cell culture supernatant SEAP reporter activity was determined using QUANTI-Blue™ kit (Cat. #: rep-qb1, Invivogen, San Diego, Ca, USA) at a wavelength of 640 nm, a detection medium that turns purple or blue in the presence of alkaline phosphatase.
HEK293-Blue-hTLR8 cells were incubated at a density of 250,000-450,000 cells/mL in a volume of 170 μL in a 96-well plate in Dulbecco's Modified Eagle's medium (DMEM) containing 4.5 g/L glucose, 50 U/mL penicillin, […], […], 2 mM L-glutamine, 10% (v/v) heat-inactivated fetal bovine serum with addition of 20 μL test compound in a serial dilution in the presence of final DMSO at 1% and 10 sL of 60 uM R848 in above DMEM, perform incubation under 37° C. in a CO2 incubator for 20 hrs. Then 20 μL of the supernatant from each well was incubated with 180 sL Quanti-blue substrate solution at 37° C. for 2 hrs and the absorbance was read at 620˜655 nm using a spectrophotometer. The signalling pathway that TLR8 activation leads to downstream NF-κB activation has been widely accepted, and therefore similar reporter assay was modified for evaluating TLR8 antagonist.

**Q.** How did the IC50 turn out when `O=C(NC1CC2COCC(C1)N2)C1CN(c2ccc(C(F)(F)F)c3nccnc23)CC12CC2` (stereo not shown) [Example 6, N-(3-oxa-9-azabicyclo[3.3.1]nonan-7-yl)-5-[8-(trifluoromethyl)quinoxalin-5-yl]-5-azaspiro[2.4]heptane-7-carboxamide] was run?
**A.** The IC50 was 291 nM.

**Q.** With `O=C(NC1C2CCCC1CNC2)C1CN(c2ccc(C(F)(F)F)c3nccnc23)CC12CC2` (stereo not shown) [Example 8, N-(3-azabicyclo[3.3.1]nonan-9-yl)-5-[8-(trifluoromethyl)quinoxalin-5-yl]-5-azaspiro[2.4]heptane-7-carboxamide] as the molecule, how does the IC50 read?
**A.** The IC50 was 216 nM.

**Q.** Which IC50 does the source give for `O=C(NC1CC2CCCC(C1)N2)C1CN(c2ccc(C(F)(F)F)c3nccnc23)CC12CC2` (stereo not shown) [Example 10, N-(9-azabicyclo[3.3.1]nonan-3-yl)-5-[8-(trifluoromethyl)quinoxalin-5-yl]-5-azaspiro[2.4]heptane-7-carboxamide] here?
**A.** The IC50 was 245 nM.

**Q.** `CN1CCC(NC(=O)C2CN(c3ccc(C(F)(F)F)c4nccnc34)CC23CC3)CC1` (stereo not shown) [Example 11, N-(1-methyl-4-piperidyl)-5-[8-(trifluoromethyl)quinoxalin-5-yl]-5-azaspiro[2.4]heptane-7-carboxamide] was tested. Which IC50 did it give?
**A.** The IC50 was 30 nM.

**Q.** `O=C(NC1C2CCC1CNC2)C1CN(c2ccc(C(F)(F)F)c3nccnc23)CC12CC2` (stereo not shown) [Example 12, N-(3-azabicyclo[3.2.1]octan-8-yl)-5-[8-(trifluoromethyl)quinoxalin-5-yl]-5-azaspiro[2.4]heptane-7-carboxamide] was tested. Which IC50 did it give?
**A.** Its IC50 is 227 nM.

**Q.** For `N#Cc1ccc(N2CC(C(=O)NCC3CNCCO3)C3(CC3)C2)c2nccnc12` (stereo not shown) [Example 13, 5-(8-Cyanoquinoxalin-5-yl)-N-(morpholin-2-ylmethyl)-5-azaspiro[2.4]heptane-7-carboxamide], which IC50 is on record?
**A.** Its IC50 is 48 nM.

**Q.** Which IC50 does the source give for `O=C(NC1CC2CNCC(C2)C1)C1CN(c2ccc(C(F)(F)F)c3nccnc23)CC12CC2` (stereo not shown) [Example 15, N-(3-azabicyclo[3.3.1]nonan-7-yl)-5-[8-(trifluoromethyl)quinoxalin-5-yl]-5-azaspiro[2.4]heptane-7-carboxamide] here?
**A.** The IC50 was 156 nM.

**Q.** `C[C@H]1CN(c2ccc(C#N)c3ncccc23)C[C@@H]1C(=O)NC1CCN(C)CC1` [Example 16, (3R,4R)-1-(8-cyano-5-quinolyl)-4-methyl-N-(1-methyl-4-piperidyl)pyrrolidine-3-carboxamide] was tested. Which IC50 did it give?
**A.** Its IC50 is 72 nM.

**Q.** Which IC50 does the source give for `CN1CCC(NC(=O)C2CN(c3ccc(C#N)c4ncccc34)CC2C(F)(F)F)CC1` (stereo not shown) [Example 18, 1-(8-Cyano-5-quinolyl)-N-(1-methyl-4-piperidyl)-4-(trifluoromethyl)pyrrolidine-3-carboxamide] here?
**A.** Its IC50 is 75 nM.

**Q.** How did the IC50 turn out when `CN1CC(NC(=O)C2CN(c3ccc(C(F)(F)F)c4nccnc34)CC23CC3)C2(CC2)C1` (stereo not shown) [Example 20, N-(5-methyl-5-azaspiro[2.4]heptan-7-yl)-5-[8-(trifluoromethyl)quinoxalin-5-yl]-5-azaspiro[2.4]heptane-7-carboxamide] was run?
**A.** Its IC50 is 369 nM.

**Q.** Which IC50 does the source give for `O=C(NC1CC2CNCC2C1)C1CN(c2ccc(C(F)(F)F)c3nccnc23)CC12CC2` (stereo not shown) [Example 21, N-(1,2,3,3a,4,5,6,6a-octahydrocyclopenta[c]pyrrol-5-yl)-5-[8-(trifluoromethyl)quinoxalin-5-yl]-5-azaspiro[2.4]heptane-7-carboxamide] here?
**A.** The IC50 was 77 nM.

**Q.** How did the IC50 turn out when `NC1CC2(C1)CC(NC(=O)C1CN(c3ccc(C(F)(F)F)c4nccnc34)CC13CC3)C2` (stereo not shown) [Example 22, N-(6-aminospiro[3.3]heptan-2-yl)-5-[8-(trifluoromethyl)quinoxalin-5-yl]-5-azaspiro[2.4]heptane-7-carboxamide] was run?
**A.** Its IC50 is 65 nM.

**Q.** With `O=C(NC1CC2CCC(C1)N2)C1CN(c2ccc(C(F)(F)F)c3nccnc23)CC12CC2` (stereo not shown) [Example 23, N-(8-azabicyclo[3.2.1]octan-3-yl)-5-[8-(trifluoromethyl)quinoxalin-5-yl]-5-azaspiro[2.4]heptane-7-carboxamide] as the molecule, how does the IC50 read?
**A.** Its IC50 is 243 nM.

**Q.** With `N[C@H]1CC[C@H](NC(=O)C2CN(c3ccc(C(F)(F)F)c4nccnc34)CC23CC3)CC1` (stereo partly shown) [Example 24, N-(4-aminocyclohexyl)-5-[8-(trifluoromethyl)quinoxalin-5-yl]-5-azaspiro[2.4]heptane-7-carboxamide] as the molecule, how does the IC50 read?
**A.** The IC50 was 175 nM.

**Q.** How did the IC50 turn out when `C[C@@H]1CN(c2ccc(C(F)(F)F)c3nccnc23)C[C@H]1C(=O)NC1CCN(C)CC1` [Example 25, (3S,4S)-4-Methyl-N-(1-methyl-4-piperidyl)-1-[8-(trifluoromethyl)quinoxalin-5-yl]pyrrolidine-3-carboxamide] was run?
**A.** Its IC50 is 152 nM.

**Q.** Which IC50 does the source give for `CN(C)CC1CC(NC(=O)C2CN(c3ccc(C(F)(F)F)c4nccnc34)CC23CC3)C1` (stereo not shown) [Example 26, N-[3-[(dimethylamino)methyl]cyclobutyl]-5-[8-(trifluoromethyl)quinoxalin-5-yl]-5-azaspiro[2.4]heptane-7-carboxamide] here?
**A.** The IC50 was 44 nM.

**Q.** Which IC50 does the source give for `C[C@H]1CN(c2ccc([N+](=O)[O-])c3ncccc23)C[C@@H]1C(=O)NC1CCN(C)CC1` [Example 27, (3R,4R)-4-Methyl-N-(1-methyl-4-piperidyl)-1-(8-nitro-5-quinolyl)pyrrolidine-3-carboxamide] here?
**A.** The IC50 was 52 nM.

**Q.** With `NC1CC(CNC(=O)C2CN(c3ccc(C(F)(F)F)c4nccnc34)CC23CC3)C1` (stereo not shown) [Example 31, N-[(3-aminocyclobutyl)methyl]-5-[8-(trifluoromethyl)quinoxalin-5-yl]-5-azaspiro[2.4]heptane-7-carboxamide] as the molecule, how does the IC50 read?
**A.** The IC50 was 167 nM.

**Q.** For `Cc1ccc(N2C[C@H](C(=O)NC3CCN(C)CC3)[C@@H](C)C2)c2nccnc12` [Example 33, (3R,4R)-4-Methyl-N-(1-methyl-4-piperidyl)-1-(8-methylquinoxalin-5-yl)pyrrolidine-3-carboxamide], which IC50 is on record?
**A.** The IC50 was 75 nM.

**Q.** With `O=C(NC1CC2(CCNCC2)C1)C1CN(c2ccc(C(F)(F)F)c3nccnc23)CC12CC2` (stereo not shown) [Example 34, N-(7-azaspiro[3.5]nonan-2-yl)-5-[8-(trifluoromethyl)quinoxalin-5-yl]-5-azaspiro[2.4]heptane-7-carboxamide] as the molecule, how does the IC50 read?
**A.** Its IC50 is 437 nM.

**Q.** Which IC50 does the source give for `N#Cc1ccc(N2C[C@H](C(=O)NC3CCN(C4CCNCC4)CC3)[C@@H](C(F)(F)F)C2)c2nccnc12` [Example 35, (3R,4R)-1-(8-Cyanoquinoxalin-5-yl)-N-[1-(4-piperidyl)-4-piperidyl]-4-(trifluoromethyl)pyrrolidine-3-carboxamide] here?
**A.** The IC50 was 38 nM.

**Q.** For `N[C@@H]1C[C@H](NC(=O)C2CN(c3ccc(C(F)(F)F)c4nccnc34)CC23CC3)[C@@H]2C[C@@H]21` (stereo partly drawn) [Example 36, N-[(1R,2S,4R,5S)-4-amino-2-bicyclo[3.1.0]hexanyl]-5-[8-(trifluoromethyl)quinoxalin-5-yl]-5-azaspiro[2.4]heptane-7-carboxamide], which IC50 is on record?
**A.** Its IC50 is 251 nM.

**Q.** Which IC50 does the source give for `NC1CC(NC(=O)C2CN(c3ccc(C(F)(F)F)c4nccnc34)CC23CC3)C1` (stereo not shown) [Example 38, N-(3-Aminocyclobutyl)-5-[8-(trifluoromethyl)quinoxalin-5-yl]-5-azaspiro[2.4]heptane-7-carboxamide] here?
**A.** Its IC50 is 172 nM.

**Q.** `N[C@H]1CC[C@@H](NC(=O)C2CN(c3ccc(C(F)(F)F)c4nccnc34)CC23CC3)CC1` (stereo partly shown) [Example 39, N-(4-Aminocyclohexyl)-5-[8-(trifluoromethyl)quinoxalin-5-yl]-5-azaspiro[2.4]heptane-7-carboxamide] was tested. Which IC50 did it give?
**A.** The IC50 was 447 nM.

**Q.** `C[C@H]1CN(c2ccc(C#N)n3nccc23)C[C@@H]1C(=O)NC1CCN(C)CC1` [Example 44, (3R,4R)-1-(7-cyanopyrazolo[1,5-a]pyridin-4-yl)-4-methyl-N-(1-methyl-4 piperidyl)pyrrolidine-3-carboxamide] was tested. Which IC50 did it give?
**A.** Its IC50 is 404 nM.

— patent US20210323977A1, “PYRROLIDINYL AMIDE COMPOUNDS FOR THE TREATMENT OF AUTOIMMUNE DISEASE” (Hoffmann-La Roche Inc., priority 2018, published 2021)
